Numbered stars: 1 amine (or outer) side, 2 acyl side, 3 side chain; on linkers, the order of the positions; unused ones are H or OH. Square brackets hold non-standard residues; d marks the D form. Ends that are not written are not given here. Peptide text beside a SMILES is read from it. * marks the point of attachment. X4 = CC(C)C[C@H](NCCN*)C(=O)N[C@@H](CCCNC(=N)N)C(=O)N[C@@H](Cc1ccccc1)C(N)=O; X5 = NC(=O)C[C@@H](CN([C@@H](Cc1c[nH]c2ccccc12)C(=O)[*:2])[*:1])N[*:3]; X10 = NC(=O)C[C@@H](C(=O)[*:2])N(C[C@@H](N)Cc1ccc(O)cc1)[*:1]; Phe(4-Cl) = N[C@@H](Cc1ccc(Cl)cc1)C(=O)O; Phe(4-NH2) = Nc1ccc(C[C@H](N)C(=O)O)cc1; Phe(4-F) = N[C@@H](Cc1ccc(F)cc1)C(=O)O; 2Nal = N[C@@H](Cc1ccc2ccccc2c1)C(=O)O; Arg(Me) = CNC(=N)NCCC[C@H](N)C(=O)O; 4Pal = N[C@@H](Cc1ccncc1)C(=O)O; d3Pal = N[C@H](Cc1cccnc1)C(=O)O; Cha = N[C@@H](CC1CCCCC1)C(=O)O; Boc = CC(C)(C)OC(=O)*; azaGly = NNC(=O)O
target: hOT7T175 (Homo sapiens, UniProt Q969F8, L364H); experiment: Intracellular Ca ion level-increasing activity using FLIPR in hOT7T175/CHO; assay type: cell-based; set-up: expressed in transfected cells; host or cells: CHO/dhfr- cells, obtained from ATCC; conditions: relative, Metastin (1-54) = 1
Sequence (Q969F8 whole entry L364H): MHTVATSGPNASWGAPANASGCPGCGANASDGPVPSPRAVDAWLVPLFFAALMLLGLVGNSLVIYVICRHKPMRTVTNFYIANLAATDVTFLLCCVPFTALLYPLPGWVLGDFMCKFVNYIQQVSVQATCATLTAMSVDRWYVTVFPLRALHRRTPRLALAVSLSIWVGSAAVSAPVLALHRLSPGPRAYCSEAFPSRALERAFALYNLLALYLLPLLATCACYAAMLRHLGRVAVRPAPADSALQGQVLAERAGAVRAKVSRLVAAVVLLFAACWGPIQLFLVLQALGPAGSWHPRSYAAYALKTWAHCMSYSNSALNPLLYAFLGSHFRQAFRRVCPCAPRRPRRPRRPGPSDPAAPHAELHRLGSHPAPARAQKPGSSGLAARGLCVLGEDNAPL

Row | Molecule | Specific Activity (intracellular Ca ion level-increasing activity)
1 | CNC(=N)NCCC[C@H](NC(=O)[C@H](CC(C)C)NC(=O)CNC(=O)[C@H](CC1CCCCC1)NC(=O)[C@H](CO)NC(=O)[C@H](CC(N)=O)NC(=O)[C@H](Cc1c[nH]c2ccccc12)NC(=O)[C@H](CC(N)=O)NC(=O)[C@H](N)Cc1ccc(O)cc1)C(=O)N[C@@H](Cc1ccccc1)C(N)=O [Compound No. 203, D-Tyr-Asn-Trp-Asn-Ser-Cha-Gly-Leu-Arg(Me)-Phe-NH2] (H-[dY]NWNS[Cha]GL[Arg(Me)]F-NH2) | 10
2 | CC(C)C[C@H](NC(=O)CNC(=O)[C@H](Cc1ccccc1)NC(=O)[C@H](CO)NC(=O)[C@H](CC(N)=O)NC(=O)[C@H](Cc1c[nH]c2ccccc12)NC(=O)[C@H](CC(N)=O)NC(=O)[C@@H](N)Cc1ccc(O)cc1)C(=O)N[C@@H](CCCNC(=N)N)C(=O)N[C@@H](Cc1ccccc1F)C(N)=O [Compound No. 19] | 2
3 | CNC(=N)NCCC[C@H](NC(=O)[C@H](CC(C)C)NC(=O)CNC(=O)[C@H](Cc1ccccc1)NC(=O)[C@H](CO)NC(=O)[C@H](CC(N)=O)NC(=O)[C@H](C)NC(=O)[C@H](CC(N)=O)NC(=O)[C@H](N)Cc1ccc(O)cc1)C(=O)N[C@@H](Cc1ccccc1)C(N)=O [Compound No. 169] (H-[dY]NANSFGL[Arg(Me)]F-NH2) | 2
4 | Boc-Tyr-Asn-Trp-Phe-Gly-Leu-Arg-Phe-NH2 (Boc-YNWFGLRF-NH2; SMILES CC(C)C[C@H](NC(=O)CNC(=O)[C@H](Cc1ccccc1)NC(=O)[C@H](Cc1c[nH]c2ccccc12)NC(=O)[C@H](CC(N)=O)NC(=O)[C@H](Cc1ccc(O)cc1)NC(=O)OC(C)(C)C)C(=O)N[C@@H](CCCNC(=N)N)C(=O)N[C@@H](Cc1ccccc1)C(N)=O) [Compound No. 87] | 1
5 | CNC(=N)NCCC[C@H](NC(=O)[C@H](CC(C)C)NC(=O)NNC(=O)[C@H](Cc1ccccc1)NC(=O)[C@H](CO)NC(=O)[C@H](CC(N)=O)NC(=O)[C@H](Cc1ccncc1)NC(=O)[C@@H](CC(N)=O)NC(=O)[C@H](N)Cc1ccc(O)cc1)C(=O)N[C@@H](Cc1ccc(F)cc1)C(N)=O [Compound No. 317, D-Tyr-D-Asn-Pya(4)-Asn-Ser-Phe-AzaGly-Leu-Arg(Me)-Phe(4F)-NH2] (H-[dY][dN][4Pal]NSF[azaGly]L[Arg(Me)][Phe(4-F)]-NH2) | 1
6 | CC(C)C[C@H](NC(=O)CNC(=O)[C@H](Cc1ccccc1)NC(=O)[C@H](CO)NC(=O)[C@H](CC(N)=O)NC(=O)[C@H](Cc1c[nH]c2ccccc12)NC(=O)[C@H](CC(N)=O)NC(=O)[C@@H](N)Cc1ccc(O)cc1)C(=O)N[C@@H](CCCNC(=N)N)C(=O)N[C@@H](Cc1ccc2ccccc2c1)C(N)=O [Compound No. 110] (H-YNWNSFGLR[2Nal]-NH2) | 20
7 | Tyr-Asn-Trp-Asn-Ser-Phe-Gly-Ala-Arg-Phe-NH2 (YNWNSFGARF-NH2) [Compound No. 45] | 1
8 | CNC(=N)NCCC[C@H](NC(=O)[C@H](CC(C)C)NC(=O)CNC(=O)[C@H](Cc1ccccc1)NC(=O)[C@H](CO)NC(=O)[C@H](CC(N)=O)NC(=O)[C@H](Cc1c[nH]c2ccccc12)NC(=O)[C@H](N)CC(N)=O)C(=O)N[C@@H](Cc1ccccc1)C(N)=O [Compound No. 216] (H-[dN]WNSFGL[Arg(Me)]F-NH2; N-terminus assumed) | 1
9 | CNC(=N)NCCC[C@H](NC(=O)[C@H](CC(C)C)NC(=O)NNC(=O)[C@H](Cc1ccccc1)NC(=O)[C@H](CO)NC(=O)[C@H](CC(N)=O)NC(=O)[C@H](Cc1ccc(Cl)cc1)NC(=O)[C@H](CC(N)=O)NC(=O)[C@H](N)Cc1ccc(O)cc1)C(=O)N[C@@H](Cc1ccccc1)C(N)=O [Compound No. 249, D-Tyr-Asn-Phe(4Cl)-Asn-Ser-Phe-AzaGly-Leu-Arg(Me)-Phe-NH2] (H-[dY]N[Phe(4-Cl)]NSF[azaGly]L[Arg(Me)]F-NH2) | 1
10 | CC(C)C[C@H](NC(=O)CNC(=O)[C@H](Cc1ccccc1)NC(=O)[C@H](CO)NC(=O)[C@H](CC(N)=O)NC(=O)[C@H](Cc1c[nH]c2ccccc12)NC[C@H](CC(N)=O)NC(=O)[C@@H](N)Cc1ccc(O)cc1)C(=O)N[C@@H](CCCNC(=N)N)C(=O)N[C@@H](Cc1ccccc1)C(N)=O [Compound No. 295] (H-[X5](Tyr)NSFGLRF-NH2) | 1
11 | CC(C)C[C@H](NC(=O)CNC(=O)[C@H](Cc1ccccc1)NC(=O)[C@H](CO)NC(=O)[C@H](CC(N)=O)NC(=O)[C@H](Cc1c[nH]c2ccccc12)NC(=O)[C@H](CC(N)=O)NC(=O)[C@@H](N)Cc1ccc(O)cc1)C(=O)N[C@@H](CCCNC(=N)N)C(=O)N[C@@H](Cc1ccc([N+](=O)[O-])cc1)C(N)=O [Compound No. 132] | 10
12 | CC(C)C[C@H](NC(=O)CNC(=O)[C@H](Cc1ccccc1)NC(=O)[C@H](CO)NC(=O)[C@H](CC(N)=O)NC(=O)[C@@H](Cc1c[nH]c2ccccc12)NC(=O)[C@H](CC(N)=O)NC(=O)[C@@H](N)Cc1ccc(O)cc1)C(=O)N[C@@H](CCCNC(=N)N)C(=O)N[C@@H](Cc1ccccc1)C(N)=O [Compound No. 40] | 30
13 | CNC(=N)NCCC[C@H](NC(=O)[C@H](CC(C)C)NC(=O)NNC(=O)[C@H](Cc1ccccc1)NC(=O)[C@H](CO)NC(=O)[C@H](CC(N)=O)NC(=O)[C@@H](NC(=O)[C@H](N)Cc1ccc(O)cc1)[C@@H](C)O)C(=O)N[C@@H](Cc1ccccc1)C(N)=O [Compound No. 241, D-Tyr-Thr-Asn-Ser-Phe-AzaGly-Leu-Arg(Me)-Phe-NH2] (H-[dY]TNSF[azaGly]L[Arg(Me)]F-NH2) | 1
14 | CNC(=N)NCCC[C@H](NC(=O)[C@H](CC(C)C)NC(=O)NNC(=O)[C@H](Cc1ccccc1)NC(=O)[C@H](CO)NC(=O)[C@H](CC(N)=O)NC(=O)[C@H](CC1CCCCC1)NC(=O)[C@@H](CC(N)=O)NC(=O)[C@H](N)Cc1cccnc1)C(=O)N[C@@H](Cc1ccccc1)C(N)=O [Compound No. 290, D-Pya(3)-D-Asn-Cha-Asn-Ser-Phe-AzaGly-Leu-Arg(Me)-Phe-NH2] (H-[d3Pal][dN][Cha]NSF[azaGly]L[Arg(Me)]F-NH2) | 1

The remaining lines, values ahead:

Row | Specific Activity (intracellular Ca ion level-increasing activity) | Molecule
15 | 1 | CC(C)C[C@H](NC(=O)CNC[C@H](Cc1ccccc1)NC(=O)[C@H](CO)NC(=O)[C@H](CC(N)=O)NC(=O)[C@H](Cc1c[nH]c2ccccc12)NC(=O)[C@H](CC(N)=O)NC(=O)[C@@H](N)Cc1ccc(O)cc1)C(=O)N[C@@H](CCCNC(=N)N)C(=O)N[C@@H](Cc1ccccc1)C(N)=O [Compound No. 163, Tyr-Asn-Trp-Asn-Ser-PheΨ(CH2NH)Gly-Leu-Arg-Phe-NH2]
16 | 1 | CNC(=N)NCCC[C@H](NC(=O)[C@H](CC(C)C)NC(=O)CNC(=O)[C@H](Cc1ccccc1)NC(=O)[C@H](CO)NC(=O)[C@@H](NC(=O)[C@H](Cc1c[nH]c2ccccc12)NC(=O)[C@H](CC(N)=O)NC(=O)[C@H](N)Cc1ccc(O)cc1)[C@@H](C)O)C(=O)N[C@@H](Cc1ccccc1)C(N)=O [Compound No. 208] (H-[dY]NWTSFGL[Arg(Me)]F-NH2)
17 | 1 | Tyr-Asn-Trp-Phe-Gly-Leu-Arg-Phe-NH2 (YNWFGLRF-NH2) [Compound No. 88]
18 | 1 | CNC(=N)NCCC[C@H](NC(=O)[C@H](CC(C)C)NC(=O)NNC(=O)[C@H](Cc1ccccc1)NC(=O)[C@H](CO)NC(=O)[C@H](CC(N)=O)NC(=O)[C@@H](NC(=O)[C@H](CC(N)=O)NC(=O)[C@H](N)Cc1ccc(O)cc1)C(C)C)C(=O)N[C@@H](Cc1ccccc1)C(N)=O [Compound No. 234, D-Tyr-Asn-Val-Asn-Ser-Phe-AzaGly-Leu-Arg(Me)-Phe-NH2] (H-[dY]NVNSF[azaGly]L[Arg(Me)]F-NH2; N-terminus assumed)
19 | 10 | CC[C@H](C)[C@H](NC(=O)[C@H](CC(N)=O)NC(=O)[C@H](N)Cc1ccc(O)cc1)C(=O)N[C@@H](CC(N)=O)C(=O)N[C@@H](CO)C(=O)N[C@@H](Cc1ccccc1)C(=O)NCC(=O)N[C@@H](CC(C)C)C(=O)N[C@@H](CCCNC(=N)NC)C(=O)N[C@@H](Cc1ccccc1)C(N)=O [Compound No. 206] (H-[dY]NINSFGL[Arg(Me)]F-NH2)
20 | 5 | Methylthiocarbamoyl-Sar-D-Tyr-Asn-Trp-Asn-Ser-Phe-Gly-Leu-Arg(Me)-Phe-NH2 [Compound No. 397]
21 | 1 | CC(C)C[C@H](NCCNC(=O)[C@H](Cc1ccccc1)NC(=O)[C@H](CO)NC(=O)[C@H](CC(N)=O)NC(=O)[C@H](Cc1c[nH]c2ccccc12)NC(=O)[C@H](CC(N)=O)NC(=O)[C@@H](N)Cc1ccc(O)cc1)C(=O)N[C@@H](CCCNC(=N)N)C(=O)N[C@@H](Cc1ccccc1)C(N)=O [Compound No. 261, Tyr-Asn-Trp-Asn-Ser-Phe-GlyΨ(CH2NH)Leu-Arg-Phe-NH2] (H-YNWNSF-X4; N-terminus assumed)
22 | 1 | CNC(=N)NCCC[C@H](NC(=O)[C@H](CC(C)C)NC(=O)NNC(=O)[C@H](Cc1ccccc1)NC(=O)[C@H](CO)NC(=O)[C@H](CC(N)=O)NC(=O)[C@H](Cc1ccc(N)cc1)NC(=O)[C@H](CC(N)=O)NC(=O)[C@H](N)Cc1ccc(O)cc1)C(=O)N[C@@H](Cc1ccccc1)C(N)=O [Compound No. 250, D-Tyr-Asn-Phe(4NH2)-Asn-Ser-Phe-AzaGly-Leu-Arg(Me)-Phe-NH2] (H-[dY]N[Phe(4-NH2)]NSF[azaGly]L[Arg(Me)]F-NH2)
23 | 10 | CC(C)C[C@H](NC(=O)CNC(=O)[C@H](Cc1ccccc1)NC(=O)[C@H](CO)NC(=O)[C@H](CC(N)=O)NC(=O)[C@H](Cc1c[nH]c2ccccc12)NC(=O)[C@H](CC(N)=O)NC[C@@H](N)Cc1ccc(O)cc1)C(=O)N[C@@H](CCCNC(=N)N)C(=O)N[C@@H](Cc1ccccc1)C(N)=O [Compound No. 294] (H-[X10]WNSFGLRF-NH2)

Reference: US8361968B2 (Takeda Pharmaceutical Company Limited, priority 2002, dated 2013)
